Reference: US10273305B2, “Bispecific CXCR4-CD4 polypeptides with potent anti-HIV activity” (Ablynx N.V., priority 2015, dated 2019)
Values joined by “and” are separate entries in the source; they are usually repeats but may differ in a detail not shown here. Equal values may be shown once. Read-outs that look alike come from different tables or passages of the source.

How the values were obtained:
HUT-78/HIV-1 NL4.3 = test: HIV-1-mediated cell-cell fusion, HUT-78/NL4.3 with SupT1 cells
AMD3100 resistant virus = test: microbe, parasite or virus in culture; type: cell-based, HIV-1; settings: Human immunodeficiency virus 1, MT4, read-out: IC50 MT-4 AMD-3100 res.
[1] = tested on: HIV-1 CM237 clinical isolate (clade B); test: HIV-1 CM237 infection of PBMCs, p24; type: cell-based; settings: Human immunodeficiency virus 1; PBMC, average 2 donors
[2] = tested on: dual-tropic (R5/X4) HIV-2 ROD strain; test: microbe, parasite or virus in culture; settings: Human immunodeficiency virus 2, MT4, read-out: IC50 MT-4 HIV-2 ROD R5/X4 n = 3
NL4.3 281F12 res = test: microbe, parasite or virus in culture; type: cell-based, HIV-1; settings: Human immunodeficiency virus 1, TZM-bl, read-out: IC50 TZM-bl X4 NL4.3 281F12 res n = 3
[3] = tested on: HIV-1 X4 UG270 clinical isolate (clade D); test: HIV-1 UG270 infection of PBMCs, p24; type: cell-based; settings: Human immunodeficiency virus 1; PBMC, average 2 donors
HIV-1 X4 NL4.3 strain = test: HIV-1 NL4.3 infection of PHA-stimulated PBMCs, p24 Ag ELISA; type: cell-based
[4] = tested on: HIV-1 CI#17 clinical isolate (clade B); test: HIV-1 CI#17 infection of PBMCs, p24; type: cell-based; settings: Human immunodeficiency virus 1; PBMC, average 2 donors
NL4.3 3F11 res. = test: microbe, parasite or virus in culture; type: cell-based, HIV-1; settings: Human immunodeficiency virus 1, PBMC, read-out: IC50 PBMC NL4.3 3F11 res. n = 2
NL4.3 3F11 res = test: microbe, parasite or virus in culture; type: cell-based, HIV-1; settings: Human immunodeficiency virus 1, TZM-bl, read-out: IC50 TZM-bl X4 NL4.3 3F11 res n = 3
[5] = tested on: CXCL-12 res. HIV-1 NL4.3 variant; test: microbe, parasite or virus in culture; type: cell-based; settings: Human immunodeficiency virus 1, MT4, read-out: IC50 MT-4 CXCL-12 res.
[6] = tested on: HIV-1 NL4.3 281F12-resistant virus; test: microbe, parasite or virus in culture; type: cell-based
HIV-1 NL4.3 (X4) = test: HIV-1 NL4.3 infection of U87 cells; settings: Human immunodeficiency virus 1, U-87 MG, read-out: IC50 U87 + NL 4.3 (X4) n = 3
HUT-78/HIV1 IIIb = test: HIV-1-mediated cell-cell fusion, HUT-78/IIIb with SupT1 cells; settings: Human immunodeficiency virus 1, IIIB, read-out: IC50 syncytia formation SupT1 + HUT-78/IIIb n = 3
[7] = tested on: dual-tropic (R5/X4) HIV-1 strain HE; test: microbe, parasite or virus in culture; settings: Human immunodeficiency virus 1, MT4, read-out: IC50 MT-4 HE R5/X4 n = 3
[8] = tested on: HIV-1 NL4.3 3F11-resistant virus; test: microbe, parasite or virus in culture; type: cell-based
[9] = tested on: CXCR4-using (X4) HIV-1 clone NL4.3; test: microbe, parasite or virus in culture; type: cell-based
X4 HIV-1 NL4.3 WT = test: TZM-bl luciferase assay, NL4.3 WT; type: cell-based; settings: Human immunodeficiency virus 1, TZM-bl, read-out: IC50 TZM-bl X4 NL4.3 WT n = 4
NL4.3 281F12 res. = test: microbe, parasite or virus in culture; type: cell-based, HIV-1; settings: Human immunodeficiency virus 1, PBMC, read-out: IC50 PBMC NL4.3 281F12 res. n = 2
[10] = tested on: dual-tropic R5/X4 HIV-1 HE; test: HIV-1 HE infection of PBMCs, p24; type: cell-based; settings: Human immunodeficiency virus 1, PBMC, read-out: IC50 PBMC HE R5/X4 n = 9

c1cc(CN2CCCNCCNCCCNCC2)ccc1CN1CCCNCCNCCCNCC1 [AMD3100, plerixafor]
IC50 (HUT-78/HIV-1 NL4.3; Human immunodeficiency virus 1, HuT78, read-out: IC50 cell-cell fusion): 1100 nM | IC50 (HUT-78/HIV-1 NL4.3; Human immunodeficiency virus 1, read-out: IC50 syncytia formation SupT1 + HUT-78/NL4.3 n = 4): 1120 nM | IC50 (AMD3100 resistant virus): 404 nM | IC50 [1]: 10 nM | IC90 [1]: 24 nM | IC50 [2]: 21.1 nM | IC50 (NL4.3 281F12 res): 4920 nM | IC50 [3]: 16 nM | IC90 [3]: 41 nM | IC50 (HIV-1 X4 NL4.3 strain; Human immunodeficiency virus 1, PBMC, read-out: IC50 PBMC + NL 4.3 (X4) n = 3, Table 8.1.1): 4.5 nM | IC50 (HIV-1 X4 NL4.3 strain; Human immunodeficiency virus 1, PBMC, read-out: IC50 PBMC NL4.3 WT n = 10, Table 8.3): 4.5 nM | IC50 (HIV-1 X4 NL4.3 strain; Human immunodeficiency virus 1, PBMC, read-out: IC50 PBMC NL4.3 X4 n = 10, Table 8.1.2): 3.3 nM | IC50 (HIV-1 X4 NL4.3 strain; Human immunodeficiency virus 1, PBMC, read-out: IC50 HIV-1 NL4.3 in PBMC): 3.3 nM | IC90 (HIV-1 X4 NL4.3 strain; Human immunodeficiency virus 1, PBMC, average 2 donors): 42 nM | IC50 (HIV-1 X4 NL4.3 strain; Human immunodeficiency virus 1, PBMC, average 2 donors, read-out: IC50 NL4.3 X4): 13 nM | IC50 [4]: 22 nM | IC90 [4]: 47 nM | IC50 (NL4.3 3F11 res.): 20 nM | IC50 (NL4.3 3F11 res): 915 nM | IC50 [5]: 50.3 nM | IC50 ([6]; Human immunodeficiency virus 1, MT4, read-out: IC50 MT-4 281F12 res.): 399 nM | IC50 ([6]; Human immunodeficiency virus 1, MT4, read-out: IC50 against HIV-1 NL4.3 281F12res virus): 400 nM and 0.317 µg/mL | IC50 (HIV-1 NL4.3 (X4)): 10 nM | IC50 (HUT-78/HIV1 IIIb): 22000 nM | IC50 [7]: 3.9 nM | IC50 ([8]; Human immunodeficiency virus 1, MT4, read-out: IC50 MT-4 3F11 res.): 18.5 nM | IC50 ([8]; Human immunodeficiency virus 1, MT4, read-out: IC50 against HIV-1 NL4.3 3F11res virus): 18 nM and 0.014 µg/mL | IC50 ([9]; Human immunodeficiency virus 1, MT4, read-out: IC50 MT-4 + NL 4.3 (X4) n = 3): 4.75 nM | IC50 ([9]; Human immunodeficiency virus 1, MT4, read-out: IC50 MT-4 NL4.3 X4 n = 3): 4.28 nM | IC50 ([9]; Human immunodeficiency virus 1, MT4, read-out: IC50 MT-4 NL4.3 wt): 4.28 nM | IC50 ([9]; Human immunodeficiency virus 1, MT4, read-out: IC50 X4 NL4.3 strain in MT-4 cells): 6.26 nM | IC50 (X4 HIV-1 NL4.3 WT): 411 nM | IC50 (NL4.3 281F12 res.): 57 nM | IC50 [10]: 26 nM
